# According to PubChem BioAssay (NCI):
# Where “and” joins values, the source holds several entries; their conditions need not be identical. Equal values may be shown once.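 Briefly, cells in 96-well plates were exposed to five compound concentrations for 48 h, and endpoints were estimated by linear interpolation. GI50 is the concentration that inhibits growth by half. TGI: total growth inhibition.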
# Assays:
# Test in all cases: DTP human tumour cell line panel, 48 h
# HOP-62 NSCLC = tested on: HOP-62 NSCLC
# K-562 leukemia = tested on: K-562 leukemia
# HCC-2998 colon = tested on: HCC-2998 colon
# MOLT-4 leukemia = tested on: MOLT-4 leukemia
# RXF 393 renal = tested on: RXF 393 renal
# RPMI-8226 leukemia = tested on: RPMI-8226 leukemia
# SK-OV-3 ovarian = tested on: SK-OV-3 ovarian
# 786-0 renal = tested on: 786-0 renal
# MCF7 breast = tested on: MCF7 breast
# TK-10 renal = tested on: TK-10 renal
SMILES,GI50 (HOP-62 NSCLC) [µM],TGI (HOP-62 NSCLC),GI50 (K-562 leukemia) [µM],TGI (K-562 leukemia),TGI (HCC-2998 colon),GI50 (MOLT-4 leukemia) [µM],TGI (MOLT-4 leukemia),TGI (RXF 393 renal),GI50 (RPMI-8226 leukemia) [µM],TGI (RPMI-8226 leukemia),TGI (SK-OV-3 ovarian) [µM],GI50 (786-0 renal) [µM],TGI (786-0 renal),TGI (MCF7 breast) [µM],GI50 (TK-10 renal) [µM],TGI (TK-10 renal),GI50 (HCC-2998 colon) [µM],GI50 (RXF 393 renal) [µM],GI50 (SK-OV-3 ovarian) [µM],GI50 (MCF7 breast) [µM]
Cc1c(N)nc(C(CC(N)=O)NCC(N)C(N)=O)nc1C(=O)NC(C(=O)NC(C)C(O)C(C)C(=O)NC(C(=O)NCCc1nc(-c2nc(C(=O)NCCCNC(C)c3ccccc3)cs2)cs1)C(C)O)C(OC1OC(CO)C(O)C(O)C1OC1OC(CO)C(O)C(OC(N)=O)C1O)c1cnc[nH]1 (centres undefined),0.0845,1.07 µM and 3.01 µM,11.8,50 µM and > 100 µM,50 µM and > 100 µM,3.75,25.9 µM and > 100 µM,2.82 µM,50.4,20.3 µM and > 100 µM,45.6,1.38,43.7 µM and 33.9 µM,> 100,> 100,50 µM and > 100 µM,–,–,–,–
CC([C@H]1CC=C2C3CCC4=C[C@@H](N(C)C)CC[C@]4(C)C3CC[C@@]21C)N(C)C (some centres undefined),1.8,3.87 µM,0.611,3.05 µM,13.1 µM,1.97,5.31 µM,17.3 µM,1.91,13 µM,11.6,2.94,7.99 µM,9.4,5.42,20 µM,4.21,4.28,3.86,1.98
O=C(c1ccco1)c1c(C(F)(F)F)n([O-])c2cc(C(F)(F)F)ccc2[n+]1=O,0.484,1.08 µM,0.172,0.379 µM,0.862 µM,0.0773,0.162 µM,0.929 µM,0.455,1.19 µM,3.13,0.479,0.998 µM,1.95,1.57,3.1 µM,0.371,0.43,1.65,0.445
Cc1[nH]c(N)nc(=S)c1CCC(=O)O,–,> 100 µM,–,> 100 µM,> 100 µM,–,> 100 µM,> 100 µM,–,> 100 µM,> 100,–,> 100 µM,> 100,–,> 100 µM,–,–,–,–
NC(N)=NC(N)=NCCCc1ccco1,82.7,196 µM,24.5,238 µM,> 500 µM,28.3,176 µM,237 µM,23.7,101 µM,> 500,83.5,265 µM,> 500,22.7,119 µM,> 500,77.5,142,334
CC(C)=CC(=O)N[C@H]1CC[C@]2(C)C3CC[C@]4(C)C(C(C)N(C)C)=CCC4C3CCC2[C@H]1O (some centres undefined),2.61,7.49 µM,1.58,4.52 µM,17.8 µM,2.81,11.4 µM,9.74 µM,2.41,9.3 µM,24.6,2.85,9.23 µM,13.6,11,26.3 µM,5.22,2.7,12.1,3.06
C[C@H]1COCCN1c1cc(C2(S(=O)(=O)C3CC3)CC2)nc(-c2ccc(NC(=S)NCCO)cc2)n1,0.0486,4.37 µM,0.0498,> 100 µM,> 70.3 µM,0.0467,> 37.8 µM,0.0689 µM,< 0.0125,1.86 µM,0.0556,0.0382,3.49 µM,18,0.0148,0.274 µM,0.035,< 0.0112,< 0.01,< 0.01
CCCCCC[C@@H](C)NC(=O)c1ccc(Nc2nc3ccccc3c3occc23)cc1,3.28,27.7 µM,4.82,> 100 µM,9.16 µM,3.71,> 100 µM,9.84 µM,3.75,> 100 µM,> 100,2.9,26.3 µM,> 100,18.5,70.2 µM,2.51,3.41,4.25,7.58
C=C1C(=O)O[C@H]2[C@H]1CC/C(COC(=O)CCCc1c[nH]c3ccccc13)=C\CC[C@@]1(C)O[C@@H]21,6.54,19.6 µM,2.6,11 µM,3.46 µM,1.53,4.94 µM,2.85 µM,2.31,6.09 µM,32.8,1.6,3.2 µM,3.85,1.64,3.07 µM,1.79,1.46,17.3,1.42
Nc1nc(SCc2ccccc2Cl)cc(C(=O)O)n1,–,> 100 µM,–,> 100 µM,> 100 µM,–,–,> 100 µM,–,> 100 µM,> 100,–,> 100 µM,> 100,–,> 100 µM,–,–,–,–
Cn1c(-c2ccccc2)c(/C=C/C2=[N+](C)c3ccccc3C2(C)C)c2ccccc21,2.15,12.6 µM,0.128,5.3 µM,3.42 µM,1.06,4.06 µM,12.6 µM,0.167,0.911 µM,8.03,2.18,9.02 µM,10.8,1.35,11.5 µM,0.365,2.55,2.38,0.817
CCC1(OC(=O)CN)C(=O)OCc2c1cc1n(c2=O)Cc2cc3ccccc3nc2-1 (centres undefined),0.0946,0.285 µM,0.17,> 100 µM,1.08 µM,0.00396,0.0305 µM,0.88 µM and 0.307 µM,0.031,0.209 µM,> 54.3,0.00563,0.194 µM and 0.161 µM,–,0.721,15.1 µM,0.175,0.148,0.0224,0.0251
COc1ccc(/C=C2\SC(=Nc3ccccc3)NC2=O)cc1,7.06,26.1 µM,2.31,> 100 µM,> 100 µM,4.77,> 100 µM,26.8 µM,5.38,> 100 µM,46.8,8.25,30.1 µM,42.1,41.4,> 100 µM,10,4.68,12.6,2.68
CC(=O)OC12c3ccccc3-c3ccccc3C1C(C(=O)O)C2C(=O)O (centres undefined),–,> 10 µM,–,> 10 µM,> 10 µM,–,> 10 µM,> 10 µM,–,> 10 µM,> 10,–,> 10 µM,> 10,–,> 10 µM,–,–,–,–
CC(=O)O[C@H]1C(=O)[C@@]2(C)[C@H]([C@H](OC(=O)c3ccccc3)[C@]3(O)C[C@H](OC(=O)[C@H](OC(=O)OC[C@H]4COC(C)(C)O4)[C@@H](NC(=O)c4ccccc4)c4ccccc4)C(C)=C1C3(C)C)[C@]1(OC(C)=O)CO[C@@H]1C[C@@H]2O,0.0596,> 33.3 µM,0.0122,> 33.3 µM,> 33.3 µM,0.0408,> 33.3 µM,0.201 µM,0.00754,> 33.3 µM,> 33.3,0.122,> 33.3 µM,> 33.3,0.492,> 33.3 µM,0.00983,0.0307,0.232,0.00506
CCCCCCCC/C=C1\CCC(CN2CCOCC2)C1=O (centres undefined),–,30 µM,–,8.68 µM,26.2 µM,–,5.35 µM,25.3 µM,–,4.19 µM,34.3,–,3.07 µM,6.18,–,7.42 µM,–,–,–,–
COc1ccc(NC(=O)c2sc3nc(C)c(C(=O)/C=C/c4cccc(OC)c4)cc3c2N)cc1,1.29,3.47 µM,1.43,> 50 µM,5.32 µM,1.5,> 50 µM,1.84 µM,0.989,3.08 µM,46,0.856,1.85 µM,> 50,1.91,15.3 µM,1.52,0.916,6.71,0.339
COc1ccc(/C(C#N)=C/c2cc(OC)c(OC)c(OC)c2)cc1,34.3,> 100 µM,4.64,31.3 µM,> 100 µM,20.2,66 µM,> 100 µM,16.6,56.1 µM,> 100,41.3,> 100 µM,> 100,37.4,> 100 µM,23.1,20.6,35.8,11.1
O=c1oc2cc(OC/C(=N/O)c3ccc(F)cc3)ccc2c2ccccc12,18.1,34.2 µM,20.1,46.3 µM,30.7 µM,16.7,42.7 µM,32.5 µM,31.8,> 100 µM,41.3,11.7,25 µM,38.4,27,81.2 µM,17,14.7,24,14.9
